Patent publication US20240207402A1, “MEANS AND METHODS FOR ENHANCING RECEPTOR-TARGETED GENE TRANSFER” (Deutsches Krebsforschungszentrum Stiftung des öffentlichen …, priority 2021, published 2024)

Experiments:
activated PBMC [1] = assay: Comparison of tyrosine kinase inhibitors on targeted LV transduction of activated PBMC; assay type: cell-based, human; conditions: 5 h; for effect of TKI on transduction by targeted LVs: 50 nM dasatinib, 1 μM imatinib or 30 μM genistein
[2] = tested on: freshly isolated PBMC exposed solely to IL-7/15; conditions: 100 nM dasatinib, day 4 and 7
activated PBMC [3] = assay: Vector titers (transducing units/mL) on activated PBMC; assay type: cell-based, human
Description: Transduction was additionally promoted by the transduction enhancer VF-1. Culture medium without dasatinib and Vectofusin-1 was used for control transductions. Transgene expression in T-cells was evaluated 3 and 7 days post transduction by flow cytometry. […] After spinfection, 100 μL of fresh media, either containing the different dasatinib concentrations or without dasatinib, was added and the cells were cultured at 37° C. The medium was changed to fresh TCM with IL-2 or IL-7/15 without dasatinib 3 h, 5 h or 7 h after start of incubation with dasatinib. The cells were further cultured at 37° C., and analyzed for transgene expression 3-4 and 7 days post transduction by flow cytometry. Vector titers were determined in transducing units per milliliter (T U/mL) from LV dilutions showing linear correlation to the number of transgene-positive cells and calculated using following equation.

CD19+Nalm-6 cells = assay type: cell-based, human; conditions: effector:target 0.5:1
activated PBMC [4] = assay: Binding of CD3-targeted LVs to activated PBMC (anti-His staining); assay type: cell-based, human; conditions: 100 nM dasatinib, 7 h and 24 h after start of treatment
Description: To understand the mechanism behind the transduction enhancing characteristic of dasatinib, fully activated PBMC were incubated with CD3-targeted LVs, as described above, and analyzed via flow cytometry 7, 24 and 72 h after start of incubation with dasatinib and transduction. Cells were stained with anti-His-PE, allowing the detection of L. Vs bound to the cells.

CD25 = assay type: cell-based, human
activated PBMC [5] = assay type: cell-based, human
activated PBMC [6] = tested on: activated PBMC
Nalm-6 cells = assay type: cell-based, human
human whole blood = assay type: cell-based; conditions: 100 nM dasatinib, five to six days
[7] = tested on: CD45+ cells isolated from blood; assay: In vivo transduction in PBMC-humanized NSG mice; conditions: 10 mg/kg dasatinib i.p. one hour prior to CD3-LV i.v., seven days, not statistically significant
Description: For humanization, 1×10^7 ex vivo activated PBMC were transplanted by intravenous (i.v.) tail-vein injection into 8 week old mice. Humanization levels were measured and used for grouping of the mice by flow cytometry from blood taken eleven days post PBMC injection. The following day, 10 mg/kg dasatinib diluted in vehicle (4% DMSO, 33.3% PEG-300, 5% Tween80, 57.7% ddH20) was intraperitoneally (i.p.) administered to the mice, one hour prior to CD3-LV i.v. injection. The animals were sacrificed seven days post vector administration. Blood, spleen and bone marrow were collected and single cell 35 suspensions were prepared and analyzed by flow cytometry. Additionally, genomic DNA was isolated from the single cell suspension and used for vector copy number (VCN) analysis using quantitative polymerase chain reaction (qPCR).

activated PBMC [8] = assay: Transduction of fully activated PBMC with targeted LVs in presence of dasatinib (GFP expression, flow cytometry); assay type: cell-based, human
human CD3 receptor = assay type: cell-based; conditions: 50 or 100 nM dasat., three days post transduction
[9] = tested on: splenocytes isolated from huNSG mice; assay type: cell-based, humanized NSG mice; conditions: CD3-LV(GFP), 50 or 100 nM dasatinib 5 h, three days post transduction
[10] = tested on: freshly isolated PBMC exposed solely to IL-7/15; assay type: cell-based, human

## Cc1ccc(NC(=O)c2ccc(CN3CCN(C)CC3)cc2)cc1Nc1nccc(-c2cccnc2)n1 [imatinib, 4-[(4-Methylpiperazin-1-yl)methyl]-N-{4-methyl-3-[(4-pyridin-3˜ ylpyrimidin-2-yl)amino]phenyl}benzamid]
Activated PBMC [1]
  effect of TKI on transduction by targeted LVs: did not lead to an increase

## Cc1nc(Nc2ncc(C(=O)Nc3c(C)cccc3Cl)s2)cc(N2CCN(CCO)CC2)n1 [dasatinib, N-(2-Chloro-6-methylphenyl)-2-[[6-[4-(2-hydroxyethyl)-1-piperazinyl]-2-methyl-4-pyrimidinyl]amino]-5 thiazolecarboxamide]
[2]
  cell viability of non-activated cells: did not negatively affecT-cell viability
Activated PBMC [3]; CD19 CAR, three days post transduction
  increase of titers of CD3-LV(CAR) in presence of dasatinib: 3-16 fold
Activated PBMC [3]; with dasatinib
  titers of CD3-LV(GFP) in presence of dasatinib: 1e7-1e8 T.U./mL
CD19+Nalm-6 cells; 4 h
  tumor killing (dead target cells) by CAR T cells generated in presence of dasatinib: around 40%
CD19+Nalm-6 cells; 24 h
  Nalm-6 cells killed by CD19-CAR T cells: nearly all
Activated PBMC [4]
  amount of CD3-LVs bound to the cells: substantially increased
CD25
  CD25-expression upon activating antibodies or CD3-LVs in presence of dasatinib: did not cause an increase
Activated PBMC [5]
  CAR transduction in presence of VF-1 with dasatinib: 13%
  CAR-expression, CD3-LV transduced cells, dasatinib present: up to 10%
Activated PBMC [6]; activated PBMC, 100 nM dasatinib, day 3 and 7
  viability in presence of dasatinib compared to untreated cells: not compromised
Activated PBMC [6]; dasatinib concentrations above 50 nM, 3 days post transduction
  viability of the cells at high dasatinib concentration: dropped slightly
Nalm-6 cells; 50 nM dasatinib during transduction with CD3-LV(CAR)
  overall CAR expression compared to untreated cells: increased
Nalm-6 cells; 50 nM dasatinib, day 2 up to day 8, 1:1 ratio
  target cell killing by CAR T cells generated in presence of dasatinib: complete target cell killing
Nalm-6 cells; day 8 of the killing assay
  CAR T cell exhaustion and phenotype markers dependent on dasatinib treatment: no difference
Activated PBMC [1]; 50 nM dasatinib or 1 μM bosutinib, GFP three days post transduction
  increase of transgene expression, transduction with CD3-LV: ~4 fold
Activated PBMC [1]
  effect of TKI on transduction by targeted LVs: strongest increase
Human whole blood
  GFP-expression of CD3+ cells, CD3-LV in presence of dasatinib: above 2%
[7]
  GFP-expression and vector integration in genomic DNA of blood cells in vivo: clear tendency
Activated PBMC [8]
  GFP-expression, TR66-LV in presence of dasatinib: 30%
  T-cells transduced by CD3-LVs in presence of dasatinib: up to 70%
  effect of pretreatment on cell-directed gene transfer using CD3-LVs: dramatically increases
  effect on CD4-LV transduction: slight increase
  effect on transduction by CD8-LV and VSV-LV: not affected
  increase in transduction (maximum in this setup): 3 fold
  increase in transduction compared to untreated cells: 1.6 fold
  increase in transduction compared with Vectofusin-1: even stronger than by the transduction enhancer Vectofusin-1
  less transduction after short incubation compared to longer incubation time: 10-35%
  stability of gene transfer: remained stable
  transduction enhancement at lowest concentration: not sufficient to enhance transduction
  transduction for TR66-LV, VF-1 added in presence of dasatinib: ~70%
Human CD3 receptor
  MFI of the CD3 receptor in presence of CD3-LV and dasatinib: only slightly reduced
[9]
  GFP expression of CD45+ splenocytes in presence of dasatinib: around 25%
[10]; IL-7/15 only PBMC, 100 nM dasatinib plus VF-1
  TR66-LV mediated gene transfer, VF-1 added to dasatinib-treated cells: 10%
[10]; in presence of dasatinib (summary)
  improvement of CD3-LV transduction of cytokine-only stimulated T-cells: 7 fold

## O=c1c(-c2ccc(O)cc2)coc2cc(O)cc(O)c12 [genistein]
Activated PBMC [1]
  effect of TKI on transduction by targeted LVs: slight increase
